Source: US20260125375A1 (Pfizer Inc., priority 2022, published 2026)
Like-named read-outs stand apart in the source and are kept apart here.

Tests used:
[1] = molecular target: T1, CBL-B (Homo sapiens, UniProt Q13191); experiment: Jurkat HiBit-IL2 assay (c-CBL KO), reporter cell line expressing CBL-B only; type: cell-based; conditions: geometric mean, read-out: C-CBL KO EC50 (nM) GMean
T1 construct: endogenous in cells; host or cells: Jurkat HiBit-IL2 reporter cells, C-CBL knocked out by CRISPR
Outline: (§1)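 CRISPR knockout Jurkat HiBit-IL2 reporter cells (20,000/well) were preincubated 1 h with compounds (0.1% DMSO), then stimulated 4 h at 37 °C with anti-CD3 (1 μg/ml) and anti-CD28 (2 μg/ml) final. IL-2 was read by HiBiT lytic luminescence, normalized as fold over antibody-only baseline; EC50 reported as geometric mean.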

[2] = molecular target: T2, CBL-B (residues 36-427) (Homo sapiens, UniProt Q13191); experiment: Ligand Displacement Assay (LDA), HTRF competitive binding against BODIPY-labeled fluorescent tracer, CBL-B; conditions: geometric mean of the number of tests, read-out: CBL-B Ki (nM) GMean
T2 construct: Purified CBL-B (residues 36-427) and C-CBL (residues 46-435) proteins from baculovirus-infected insect cells; made in house; host or cells: baculovirus-infected insect cells
Outline: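 Terbium-streptavidin donor on BirA-biotinylated, AviTagged protein from baculovirus-infected insect cells; BODIPY tracer as acceptor. Compound titrations were three-fold and duplicated, […] with 2% DMSO final.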

[3] = molecular target: T3, C-CBL (Homo sapiens, UniProt P22681); experiment: Jurkat HiBit-IL2 assay (CBL-B KO), reporter cell line expressing C-CBL only; type: cell-based; conditions: geometric mean, read-out: CBL-B KO EC50 (nM) GMean
T3 construct: endogenous in cells; host or cells: Jurkat HiBit-IL2 reporter cells, CBL-B knocked out by CRISPR
Outline: as §1

[4] = c-CBL KO (CBL-B only), anti-CD3/anti-CD28 stimulation 4 hours, Table 16a
[5] = CBL-B KO (C-CBL only), anti-CD3/anti-CD28 stimulation 4 hours, Table 16a
[6] = C-CBL KO (expressing CBL-B only), Table 16b (further repetition)
[7] = CBL-B KO (expressing C-CBL only), Table 16b (further repetition)

Structure (SMILES)	EC50 [1, 4]	Ki [2]	EC50 [3, 5]	EC50 [1, 6]	EC50 [3, 7]
CC(c1nc(C(F)(F)F)cc2c(-c3cccc(C4(Cc5nncn5C)COC4)c3)n[nH]c12)N1CCCCC1 (single isomer, unassigned) [Example C22, 3-(3-{3-[(4-methyl-4H-1,2,4-triazol-3-yl)methyl]oxetan-3-yl}phenyl)-7-[(1ξ)-1-(piperidin-1-yl)ethyl]-5-(trifluoromethyl)-1H-pyrazolo[3,4-c]pyridine]	120 nM	24.1 nM	942 nM	–	–
C[C@H](c1nc(C(F)(F)F)cc2c(-c3cccc(C4(Cc5nncn5C)COC4)c3)n[nH]c12)N1C[C@@H](F)[C@H](F)C1 (single isomer, unassigned) [Example C26]	172 nM	40.5 nM	1850 nM	–	–
C[C@@H](c1nc(C(F)(F)F)cc2c(-c3cccc(C4(Cc5nncn5C)COC4)c3)n[nH]c12)N1CCC(F)(F)C1 (single isomer, unassigned) [Example D5]	650 nM	32.7 nM	1380 nM	–	–
Cn1cnnc1[C@@H](c1cccc(-c2n[nH]c3c(CNC4CCCC4)nc(C(F)(F)F)cc23)c1)C1CCC1 [Example D4]	72 nM	5.1 nM	479 nM	–	–
CC(c1nc(C(F)(F)F)cc2c(-c3cccc(C4(Cc5nncn5C)COC4)c3)n[nH]c12)N1CCC[C@H](C)C1 (single isomer, unassigned) [Example C19]	56 nM	10.8 nM	439 nM	–	–
C[C@@H](NC1CCCC1)c1nc(C(F)(F)F)cc2c(-c3cccc([C@H](c4nncn4C)C4CCC4)c3)n[nH]c12 (single isomer, unassigned) [Example C11]	5 nM	0.6 nM	46 nM	6 nM	32 nM
C[C@@H](NC1CCCC1)c1nc(C(F)(F)F)cc2c(-c3cccc(C4(Cc5nncn5C)COC4)c3)n[nH]c12 (single isomer, unassigned) [Example C15]	43 nM	8.9 nM	229 nM	–	–
C[C@H](N[C@@H]1CCOC1)c1nc(C(F)(F)F)cc2c(-c3cccc([C@H](c4nncn4C)C4CCC4)c3)n[nH]c12 (single isomer, unassigned) [Example D2]	42 nM	5.8 nM	465 nM	83 nM	425 nM
C[C@@H](NC1CCC1)c1nc(C(F)(F)F)cc2c(-c3cccc(C4(Cc5nncn5C)COC4)c3)n[nH]c12 [Example C16]	75 nM	10 nM	689 nM	–	–
C[C@@H](N[C@@H]1CCC(F)(F)C1)c1nc(C(F)(F)F)cc2c(-c3cccc(C4(Cc5nncn5C)COC4)c3)n[nH]c12 (single isomer, unassigned) [Example C18]	17 nM	2.2 nM	178 nM	19 nM	49 nM
C[C@@H]1CCCN(Cc2nc(C(F)(F)F)cc3c(-c4cccc(C5(Cc6nncn6C)COC5)c4)n[nH]c23)C1 [Example C29, 7-{[(3R)-3-methylpiperidin-1-yl]methyl}-3-(3-{3-[(4-methyl-4H-1,2,4-triazol-3-yl)methyl]oxetan-3-yl}phenyl)-5-(trifluoromethyl)-1H-pyrazolo[3,4-c]pyridine]	204 nM	8.5 nM	1320 nM	–	–
C[C@H](N[C@H]1C[C@@H](F)C1)c1nc(C(F)(F)F)cc2c(-c3cccc([C@H](c4nncn4C)C4CCC4)c3)n[nH]c12 (single isomer, unassigned) [Example C95]	–	4.7 nM	–	53 nM	230 nM
C[C@@H](N[C@H]1CCC(F)(F)C1)c1nc(C(F)(F)F)cc2c(-c3cccc(C4(Cc5nncn5C)COC4)c3)n[nH]c12 (single isomer, unassigned) [Example C13]	16 nM	2.3 nM	63 nM	–	–
C[C@@H](N[C@H]1CCOC1)c1nc(C(F)(F)F)cc2c(-c3cccc([C@H](c4nncn4C)C4CCC4)c3)n[nH]c12 (single isomer, unassigned) [Example C3]	> 159 nM	7.8 nM	639 nM	–	–
Cn1cnnc1[C@@H](c1cccc(-c2n[nH]c3c(CN[C@H]4CCC[C@@H]4O)nc(C(F)(F)F)cc23)c1)C1CCC1 [Example C4, (1S,2S)-2-({[3-{3-[(R)-cyclobutyl(4-methyl-4H-1,2,4-triazol-3-yl)methyl]phenyl}-5-(trifluoromethyl)-1H-pyrazolo[3,4-c]pyridin-7-yl]methyl}amino)cyclopentan-1-ol]	114 nM	3.3 nM	1050 nM	–	–
CC(c1nc(C(F)(F)F)cc2c(-c3cccc(C4(Cc5nncn5C)COC4)c3)n[nH]c12)N1CCOCC1 (single isomer, unassigned) [Example C23, 3-(3-{3-[(4-methyl-4H-1,2,4-triazol-3-yl)methyl]oxetan-3-yl}phenyl)-7-[(1ξ)-1-(morpholin-4-yl)ethyl]-5-(trifluoromethyl)-1H-pyrazolo[3,4-c]pyridine]	152 nM	5.7 nM	800 nM	–	–
CC(c1nc(C(F)(F)F)cc2c(-c3cccc(C4(Cc5nncn5C)COC4)c3)n[nH]c12)N1C[C@@H](F)[C@H](F)C1 (single isomer, unassigned) [Example C25]	49 nM	6.5 nM	252 nM	–	–
Cn1cnnc1[C@@H](c1cccc(-c2n[nH]c3cnc(C(F)(F)F)cc23)c1)C1CCC1 [Example A1, 3-{3-[(R)-cyclobutyl(4-methyl-4H-1,2,4-triazol-3-yl)methyl]phenyl}-5-(trifluoromethyl)-1H-pyrazolo[3,4-c]pyridine]	> 2990 nM	74.4 nM	> 5280 nM	1810 nM	4500 nM
C[C@@H](N[C@H]1C[C@@H](F)C1)c1nc(C(F)(F)F)cc2c(-c3cccc([C@H](c4nncn4C)C4CCC4)c3)n[nH]c12 (single isomer, unassigned) [Example C96]	–	9.2 nM	–	76 nM	574 nM
CC(c1nc(C(F)(F)F)cc2c(-c3cccc(C4(Cc5nncn5C)COC4)c3)n[nH]c12)N1CCC[C@H](C)C1 (single isomer, unassigned) [Example C20]	12 nM	2.4 nM	78 nM	15 nM	56 nM
C[C@H](N[C@H]1C[C@@H](O)C1)c1nc(C(F)(F)F)cc2c(-c3cccc([C@H](c4nncn4C)C4CCC4)c3)n[nH]c12 (single isomer, unassigned) [Example C36]	20 nM	1.8 nM	173 nM	35 nM	160 nM
C[C@H](N[C@H]1CCC[C@@H]1O)c1nc(C(F)(F)F)cc2c(-c3cccc([C@H](c4nncn4C)C4CCC4)c3)n[nH]c12 (single isomer, unassigned) [Example C47]	5 nM	0.7 nM	105 nM	11 nM	76 nM
CC1CN(Cc2nc(C(F)(F)F)cc3c(-c4cccc(C5(Cc6nncn6C)COC5)c4)n[nH]c23)CCC1(F)F (single isomer, unassigned) [Example C31, 7-{[(3ξ)-4,4-difluoro-3-methylpiperidin-1-yl]methyl}-3-(3-{3-[(4-methyl-4H-1,2,4-triazol-3-yl)methyl]oxetan-3-yl}phenyl)-5-(trifluoromethyl)-1H-pyrazolo[3,4-c]pyridine]	166 nM	21.7 nM	1370 nM	–	–
C[C@H](N[C@@H]1CCC(F)(F)C1)c1nc(C(F)(F)F)cc2c(-c3cccc(C4(Cc5nncn5C)COC4)c3)n[nH]c12 (single isomer, unassigned) [Example C17]	33 nM	4 nM	196 nM	–	–
Cn1cnnc1CC1(c2cccc(-c3n[nH]c4c(CN5CCCCC5)nc(C(F)(F)F)cc34)c2)COC1 [Example C33, 3-(3-{3-[(4-methyl-4H-1,2,4-triazol-3-yl)methyl]oxetan-3-yl}phenyl)-7-[(piperidin-1-yl)methyl]-5-(trifluoromethyl)-1H-pyrazolo[3,4-c]pyridine]	116 nM	22.6 nM	1840 nM	–	–
Cn1cnnc1[C@@H](c1cccc(-c2n[nH]c3c(CN[C@@H]4CCC[C@@H]4O)nc(C(F)(F)F)cc23)c1)C1CCC1 [Example C1, (1S,2R)-2-({[3-{3-[(R)-cyclobutyl(4-methyl-4H-1,2,4-triazol-3-yl)methyl]phenyl}-5-(trifluoromethyl)-1H-pyrazolo[3,4-c]pyridin-7-yl]methyl}amino)cyclopentan-1-ol]	25 nM	0.6 nM	275 nM	116 nM	584 nM
C[C@@H](N[C@@H]1CCOC1)c1nc(C(F)(F)F)cc2c(-c3cccc([C@H](c4nncn4C)C4CCC4)c3)n[nH]c12 (single isomer, unassigned) [Example D3]	47 nM	6 nM	472 nM	67 nM	333 nM
